Measurements as given in ChEMBL document CHEMBL3885881, “DrugMatrix”.

Species on record: Rattus norvegicus
Assay: DrugMatrix - Regimen: Daily Repeat
Format: toxicity, organism-based, Sprague-Dawley
Design: regimen Daily Repeat, gender Male, age 6-8 weeks
Conditions: in vivo, po, route oral GAVAGE, vehicle .5 % CMC; for ABSOLUTE BASOPHIL / ABSOLUTE EOSINOPHIL / ABSOLUTE LYMPHOCYTE / ABSOLUTE MONOCYTE / ABSOLUTE SEGMENTED NEUTROPHIL / BASOPHIL / EOSINOPHIL / ERYTHROCYTE COUNT / HEMATOCRIT / HEMOGLOBIN / LEUKOCYTE COUNT / LYMPHOCYTE / MEAN CORPUSCULAR HEMOGLOBIN / MEAN CORPUSCULAR HEMOGLOBIN CONCENTRATION / MEAN CORPUSCULAR VOLUME / MONOCYTE / NEUTROPHIL / NUCLEATED RED BLOOD CELLS / PLATELET COUNT: tissue Blood; for ALANINE AMINOTRANSFERASE / ALBUMIN / ALKALINE PHOSPHATASE / ASPARTATE AMINOTRANSFERASE / BLOOD UREA NITROGEN / CARBON DIOXIDE / CHLORIDE / CHOLESTEROL / CREATINE PHOSPHOKINASE / CREATININE / GLUCOSE / LACTATE DEHYDROGENASE / LIPASE / PHOSPHORUS / SODIUM / TOTAL BILIRUBIN / TOTAL PROTEIN / URIC ACID: tissue Plasma
[1] = 20 mg/kg, 72 h, dose level Low, time 3 day
[2] = 20 mg/kg, 120 h, dose level Low, time 5 day
[3] = 2000 mg/kg, 72 h, dose level High, time 3 day
[4] = 2000 mg/kg, 120 h, dose level High, time 5 day

NCCCC[C@H](N[C@@H](CCc1ccccc1)C(=O)O)C(=O)N1CCC[C@H]1C(=O)O [LISINOPRIL ANHYDROUS]
ABSOLUTE BASOPHIL [1]: 0 CELLS/uL
ABSOLUTE EOSINOPHIL [1]: 69 CELLS/uL
ABSOLUTE LYMPHOCYTE [1]: 9482.67 CELLS/uL
ABSOLUTE MONOCYTE [1]: 143.67 CELLS/uL
ABSOLUTE SEGMENTED NEUTROPHIL [1]: 904.67 CELLS/uL
BASOPHIL [1]: 0%
EOSINOPHIL [1]: 0.67%
ERYTHROCYTE COUNT [1]: 5.65 x10E6/uL
HEMATOCRIT [1]: 34.1%
HEMOGLOBIN [1]: 13.3 G/DL
LEUKOCYTE COUNT [1]: 10.6 x10E3/uL
LYMPHOCYTE [1]: 89.33%
MEAN CORPUSCULAR HEMOGLOBIN [1]: 23.63 pg
MEAN CORPUSCULAR HEMOGLOBIN CONCENTRATION [1]: 39 G/DL
MEAN CORPUSCULAR VOLUME [1]: 60.5 fL
MONOCYTE [1]: 1.33%
NEUTROPHIL [1]: 8.67%
NUCLEATED RED BLOOD CELLS [1]: 0 /100WBC
PLATELET COUNT [1]: 1392 x10E3/uL
ALANINE AMINOTRANSFERASE [1]: 44 u/L
ALBUMIN [1]: 4.1 G/DL
ALKALINE PHOSPHATASE [1]: 387 u/L
ASPARTATE AMINOTRANSFERASE [1]: 70 u/L
BLOOD UREA NITROGEN [1]: 22.67 mg/dL
CARBON DIOXIDE [1]: 23.33 mmol/L
CHLORIDE [1]: 101 MEQ/L
CHOLESTEROL [1]: 80.33 mg/dL
CREATINE PHOSPHOKINASE [1]: 236.67 u/L
CREATININE [1]: 0.18 mg/dL
GLUCOSE [1]: 166 mg/dL
LACTATE DEHYDROGENASE [1]: 94.33 u/L
LIPASE [1]: 10 u/L
PHOSPHORUS [1]: 11.87 mg/dL
SODIUM [1]: 140.73 MEQ/L
TOTAL BILIRUBIN [1]: 0.23 mg/dL
TOTAL PROTEIN [1]: 5.83 G/DL
URIC ACID [1]: 2.13 mg/dL
ABSOLUTE BASOPHIL [2]: 0 CELLS/uL
ABSOLUTE EOSINOPHIL [2]: 0 CELLS/uL
ABSOLUTE LYMPHOCYTE [2]: 11890.67 CELLS/uL
ABSOLUTE MONOCYTE [2]: 94.67 CELLS/uL
ABSOLUTE SEGMENTED NEUTROPHIL [2]: 1714.67 CELLS/uL
BASOPHIL [2]: 0%
EOSINOPHIL [2]: 0%
ERYTHROCYTE COUNT [2]: 6.1 x10E6/uL
HEMATOCRIT [2]: 36.67%
HEMOGLOBIN [2]: 14.77 G/DL
LEUKOCYTE COUNT [2]: 13.7 x10E3/uL
LYMPHOCYTE [2]: 87%
MEAN CORPUSCULAR HEMOGLOBIN [2]: 24.23 pg
MEAN CORPUSCULAR HEMOGLOBIN CONCENTRATION [2]: 40.3 G/DL
MEAN CORPUSCULAR VOLUME [2]: 60.07 fL
MONOCYTE [2]: 0.67%
NEUTROPHIL [2]: 12.33%
NUCLEATED RED BLOOD CELLS [2]: 0 /100WBC
PLATELET COUNT [2]: 1320.33 x10E3/uL
ALANINE AMINOTRANSFERASE [2]: 51.33 u/L
ALBUMIN [2]: 4.53 G/DL
ALKALINE PHOSPHATASE [2]: 401 u/L
ASPARTATE AMINOTRANSFERASE [2]: 81.67 u/L
BLOOD UREA NITROGEN [2]: 22.33 mg/dL
CARBON DIOXIDE [2]: 27.67 mmol/L
CHLORIDE [2]: 96.33 MEQ/L
CHOLESTEROL [2]: 70.67 mg/dL
CREATINE PHOSPHOKINASE [2]: 297.33 u/L
CREATININE [2]: 0.22 mg/dL
GLUCOSE [2]: 158 mg/dL
LACTATE DEHYDROGENASE [2]: 249 u/L
LIPASE [2]: 9.67 u/L
PHOSPHORUS [2]: 11.77 mg/dL
SODIUM [2]: 139.17 MEQ/L
TOTAL BILIRUBIN [2]: 0.17 mg/dL
URIC ACID [2]: 2 mg/dL
ABSOLUTE BASOPHIL [3]: 0 CELLS/uL
ABSOLUTE EOSINOPHIL [3]: 42.33 CELLS/uL
ABSOLUTE LYMPHOCYTE [3]: 11490 CELLS/uL
ABSOLUTE MONOCYTE [3]: 124.67 CELLS/uL
ABSOLUTE SEGMENTED NEUTROPHIL [3]: 1076.33 CELLS/uL
BASOPHIL [3]: 0%
EOSINOPHIL [3]: 0.33%
ERYTHROCYTE COUNT [3]: 5.63 x10E6/uL
HEMATOCRIT [3]: 33.57%
HEMOGLOBIN [3]: 13.17 G/DL
LEUKOCYTE COUNT [3]: 12.73 x10E3/uL
LYMPHOCYTE [3]: 90%
MEAN CORPUSCULAR HEMOGLOBIN [3]: 23.43 pg
MEAN CORPUSCULAR HEMOGLOBIN CONCENTRATION [3]: 39.27 G/DL
MEAN CORPUSCULAR VOLUME [3]: 59.63 fL
MONOCYTE [3]: 1%
NEUTROPHIL [3]: 8.67%
NUCLEATED RED BLOOD CELLS [3]: 0 /100WBC
PLATELET COUNT [3]: 1324.33 x10E3/uL
ALANINE AMINOTRANSFERASE [3]: 40.33 u/L
ALBUMIN [3]: 4.03 G/DL
ALKALINE PHOSPHATASE [3]: 322.67 u/L
ASPARTATE AMINOTRANSFERASE [3]: 68 u/L
BLOOD UREA NITROGEN [3]: 26.67 mg/dL
CARBON DIOXIDE [3]: 24.67 mmol/L
CHLORIDE [3]: 101.33 MEQ/L
CHOLESTEROL [3]: 71.67 mg/dL
CREATINE PHOSPHOKINASE [3]: 262 u/L
CREATININE [3]: 0.29 mg/dL
GLUCOSE [3]: 155 mg/dL
LACTATE DEHYDROGENASE [3]: 122.67 u/L
LIPASE [3]: 9.67 u/L
PHOSPHORUS [3]: 11.5 mg/dL
SODIUM [3]: 141.1 MEQ/L
TOTAL BILIRUBIN [3]: 0.13 mg/dL
TOTAL PROTEIN [3]: 5.77 G/DL
URIC ACID [3]: 1.53 mg/dL
ABSOLUTE BASOPHIL [4]: 0 CELLS/uL
ABSOLUTE EOSINOPHIL [4]: 43.33 CELLS/uL
ABSOLUTE LYMPHOCYTE [4]: 10946.67 CELLS/uL
ABSOLUTE MONOCYTE [4]: 86.67 CELLS/uL
ABSOLUTE SEGMENTED NEUTROPHIL [4]: 1123.33 CELLS/uL
BASOPHIL [4]: 0%
EOSINOPHIL [4]: 0.33%
ERYTHROCYTE COUNT [4]: 5.62 x10E6/uL
HEMATOCRIT [4]: 34.17%
HEMOGLOBIN [4]: 13.67 G/DL
LEUKOCYTE COUNT [4]: 12.2 x10E3/uL
LYMPHOCYTE [4]: 89.67%
MEAN CORPUSCULAR HEMOGLOBIN [4]: 24.37 pg
MEAN CORPUSCULAR HEMOGLOBIN CONCENTRATION [4]: 40 G/DL
MEAN CORPUSCULAR VOLUME [4]: 60.8 fL
MONOCYTE [4]: 0.67%
NEUTROPHIL [4]: 9.33%
NUCLEATED RED BLOOD CELLS [4]: 0 /100WBC
PLATELET COUNT [4]: 1374 x10E3/uL
ALANINE AMINOTRANSFERASE [4]: 43.33 u/L
ALBUMIN [4]: 4.17 G/DL
ALKALINE PHOSPHATASE [4]: 336.33 u/L
ASPARTATE AMINOTRANSFERASE [4]: 74 u/L
BLOOD UREA NITROGEN [4]: 29.67 mg/dL
CARBON DIOXIDE [4]: 22.67 mmol/L
CHLORIDE [4]: 103 MEQ/L
CHOLESTEROL [4]: 72 mg/dL
CREATINE PHOSPHOKINASE [4]: 214 u/L
CREATININE [4]: 0.25 mg/dL
GLUCOSE [4]: 167.67 mg/dL
LACTATE DEHYDROGENASE [4]: 146.33 u/L
LIPASE [4]: 9.67 u/L
PHOSPHORUS [4]: 10.97 mg/dL
SODIUM [4]: 141.47 MEQ/L
TOTAL BILIRUBIN [4]: 0.13 mg/dL
TOTAL PROTEIN [4]: 5.97 G/DL
URIC ACID [4]: 1.9 mg/dL
